For one test, the target named is T1, Tyrosinase (Mus musculus, UniProt P11344).
T1 sequence (P11344 whole entry): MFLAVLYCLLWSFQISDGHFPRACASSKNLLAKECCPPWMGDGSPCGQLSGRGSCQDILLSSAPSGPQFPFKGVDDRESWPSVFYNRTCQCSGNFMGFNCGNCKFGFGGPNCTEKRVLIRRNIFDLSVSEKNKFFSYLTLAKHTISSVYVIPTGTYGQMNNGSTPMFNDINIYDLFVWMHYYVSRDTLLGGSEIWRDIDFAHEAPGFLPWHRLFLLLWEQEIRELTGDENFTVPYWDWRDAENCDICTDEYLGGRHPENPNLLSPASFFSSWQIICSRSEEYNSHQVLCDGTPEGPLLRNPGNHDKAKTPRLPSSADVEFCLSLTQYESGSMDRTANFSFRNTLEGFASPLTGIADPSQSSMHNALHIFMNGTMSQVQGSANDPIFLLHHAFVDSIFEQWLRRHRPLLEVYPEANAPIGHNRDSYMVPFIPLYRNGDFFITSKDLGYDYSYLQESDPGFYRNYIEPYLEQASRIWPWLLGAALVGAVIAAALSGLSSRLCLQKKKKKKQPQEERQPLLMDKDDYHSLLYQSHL
Description: Inhibition of tyrosinase in mouse Melan-a cells by ELISA. In kind it is cell-based.

A further test relates to Melan-a. The test can be described thus: Inhibition of melanin formation in mouse Melan-a cells after 5 days by ELISA. In kind it is functional, cell-based. Particulars: 120 h.
A short description of test [1]: Antioxidant activity assessed as superoxide radical scavenging activity after 2 mins by NBT reduction assay. It is filed as functional.

Eight compounds from ChEMBL document CHEMBL1157737, “Natural ortho-dihydroxyisoflavone derivatives from aged Korean fermented soybean paste as potent tyrosinase and melanin formation inhibitors” (Bioorg Med Chem Lett, 2010) can be followed below.

In the case of `O=c1c(-c2ccc(O)c(O)c2)coc2cc(O)ccc12`, the IC50 worked out at 5.23 µM against Tyrosinase, 7.83 µM in the test with Melan-a and 10.5 µM in test [1].

For `O=c1c(-c2ccc(O)cc2)coc2cc(O)c(O)cc12`, the 50% inhibitory concentration (IC50) (against Tyrosinase; in the test with Melan-a; in test [1]) was above 500 µM in each case.

For `O=c1c(-c2ccc(O)cc2)coc2c(O)c(O)ccc12`, the IC50 is 11.2 µM against Tyrosinase, 12.2 µM in the test with Melan-a and 18.1 µM in test [1].

As for `OC[C@H]1O[C@@H](Oc2ccc(O)cc2)[C@H](O)[C@@H](O)[C@@H]1O` [ARBUTIN], inhibition in the test on Melan-a was half-maximal at 98 µM (IC50).

Regarding `O=C1O[C@H]([C@@H](O)CO)C(O)=C1O` [ASCORBIC ACID], the IC50 in test [1] is 65.1 µM.

As to `O=c1c(-c2ccc(O)cc2)coc2cc(O)ccc12` [DAIDZEIN], the IC50 (at Tyrosinase; in the test with Melan-a; in test [1]) was above 500 µM each time.

Turning to `O=c1c(-c2ccc(O)cc2)coc2cc(O)cc(O)c12` [GENISTEIN], the IC50 against Tyrosinase was above 500 µM; in the test with Melan-a it was 57.8 µM; in test [1], 489 µM.

On to `COc1cc2c(=O)c(-c3ccc(O)cc3)coc2cc1O` [GLYCITEIN], for which the half-inhibitory concentration (IC50) (at Tyrosinase; in the test with Melan-a; in test [1]) was above 500 µM throughout.
